Laboratory results taken from patent US8586768B2, “Design, synthesis and functional characterization of rottlerin analogs” (priority 2009, dated 2013).

Experiments:
[1] = tested on: N27 cells; assay: MPP+-induced DNA fragmentation in N27 cells; format: cell-based, rat; conditions: co-treated with 3 μM
Excerpt: To determine whether PK analogs are neuroprotective against MPP+-induced increases in caspase-3 and DNA fragmentation, their effects on MPP+-induced increases in caspase-3 activity and DNA fragmentation, markers of apoptotic cell death, were examined. All three analogs PK101-103 protected N27 cells from MPP+-induced caspase-3 activation and DNA fragmentation. […] (**p<0.01 and ***p<0.001, compared to vehicle control; #p<0.05, ##p<0.01, compared to MPP+ treatment).

[2] = molecular target: T1, PKCγ (Homo sapiens, UniProt P05129); assay: In-vitro kinase profiling, radioisotope screening assay (Signal Chem); format: biochemical; conditions: 5 μM compound, 50 μM ATP, vs vehicle control; negative = inhibition
T1 construct: purchased Signal Chem (Richmond, BC, Canada)
Protocol: (§1) Kinase profiling of PK analogs. The inhibitory effect of lead PK analogs were tested against a panel of 15 protein kinase targets (TABLE 1) to develop better lead candidates without “off” target effects. The selectivity assay was performed at Signal Chem™ (Richmond, BC, Canada) by profiling against protein kinase targets using the “Gold Standard” radioisotope screening assay format. This assay format gave the highest signal noise ratio and allowed the direct measurement of catalytic activity of a protein kinase.
(§2) All assays were performed in triplicate in a 96-well assay format and the % error between triplicates is <10%. Protein kinase assays was performed in the presence of 50 μM ATP at 30° C. for 15 min. The activity of the enzymes in the presence of 5 μM PK analogs was compared to that in the vehicle control and expressed as a percent change in activity relative to that observed in the vehicle control. In TABLE 1, the results are expressed as percent activity change compared to control. The intra-assay variability was determined to be less than 10%. Inhibition of target activity by the compound is shown by a negative value, while activation of target activity is shown by positive value, with values >10% considered to be highly significant.

[3] = molecular target: T2, P13K (p110b/p85a) (Homo sapiens, UniProt P42338); assay: as above; format: biochemical; conditions: 5 μM compound, 50 μM ATP, vs vehicle control; negative = inhibition
T2 construct: purchased Signal Chem (Richmond, BC, Canada)
T2 sequence (P42338 whole entry, stated change not applied): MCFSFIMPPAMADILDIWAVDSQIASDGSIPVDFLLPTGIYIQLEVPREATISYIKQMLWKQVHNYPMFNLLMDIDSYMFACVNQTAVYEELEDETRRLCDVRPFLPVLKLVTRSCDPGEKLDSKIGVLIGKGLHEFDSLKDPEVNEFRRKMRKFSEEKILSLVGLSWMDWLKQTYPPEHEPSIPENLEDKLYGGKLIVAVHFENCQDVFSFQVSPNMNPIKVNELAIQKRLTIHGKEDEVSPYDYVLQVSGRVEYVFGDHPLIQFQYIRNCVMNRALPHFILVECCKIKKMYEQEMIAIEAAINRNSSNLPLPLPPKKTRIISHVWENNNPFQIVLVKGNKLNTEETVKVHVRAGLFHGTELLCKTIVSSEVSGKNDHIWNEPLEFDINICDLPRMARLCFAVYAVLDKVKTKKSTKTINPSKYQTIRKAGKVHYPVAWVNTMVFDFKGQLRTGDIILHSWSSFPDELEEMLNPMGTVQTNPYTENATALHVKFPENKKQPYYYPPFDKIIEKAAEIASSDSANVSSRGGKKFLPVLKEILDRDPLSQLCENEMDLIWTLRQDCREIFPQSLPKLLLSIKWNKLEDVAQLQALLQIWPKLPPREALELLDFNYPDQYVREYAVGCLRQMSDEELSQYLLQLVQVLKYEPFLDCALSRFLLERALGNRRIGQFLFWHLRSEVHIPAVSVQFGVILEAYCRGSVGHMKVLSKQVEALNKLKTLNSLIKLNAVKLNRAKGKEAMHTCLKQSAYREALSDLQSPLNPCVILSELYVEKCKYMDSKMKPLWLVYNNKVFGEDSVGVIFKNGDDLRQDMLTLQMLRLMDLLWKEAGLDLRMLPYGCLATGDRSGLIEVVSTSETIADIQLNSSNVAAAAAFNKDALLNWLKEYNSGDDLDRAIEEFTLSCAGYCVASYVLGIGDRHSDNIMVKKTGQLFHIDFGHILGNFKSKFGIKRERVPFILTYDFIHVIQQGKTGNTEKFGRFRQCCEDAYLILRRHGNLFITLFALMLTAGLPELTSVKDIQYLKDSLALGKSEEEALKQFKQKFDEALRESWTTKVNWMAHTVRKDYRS
T2 sequence (P27986 2-724 partner): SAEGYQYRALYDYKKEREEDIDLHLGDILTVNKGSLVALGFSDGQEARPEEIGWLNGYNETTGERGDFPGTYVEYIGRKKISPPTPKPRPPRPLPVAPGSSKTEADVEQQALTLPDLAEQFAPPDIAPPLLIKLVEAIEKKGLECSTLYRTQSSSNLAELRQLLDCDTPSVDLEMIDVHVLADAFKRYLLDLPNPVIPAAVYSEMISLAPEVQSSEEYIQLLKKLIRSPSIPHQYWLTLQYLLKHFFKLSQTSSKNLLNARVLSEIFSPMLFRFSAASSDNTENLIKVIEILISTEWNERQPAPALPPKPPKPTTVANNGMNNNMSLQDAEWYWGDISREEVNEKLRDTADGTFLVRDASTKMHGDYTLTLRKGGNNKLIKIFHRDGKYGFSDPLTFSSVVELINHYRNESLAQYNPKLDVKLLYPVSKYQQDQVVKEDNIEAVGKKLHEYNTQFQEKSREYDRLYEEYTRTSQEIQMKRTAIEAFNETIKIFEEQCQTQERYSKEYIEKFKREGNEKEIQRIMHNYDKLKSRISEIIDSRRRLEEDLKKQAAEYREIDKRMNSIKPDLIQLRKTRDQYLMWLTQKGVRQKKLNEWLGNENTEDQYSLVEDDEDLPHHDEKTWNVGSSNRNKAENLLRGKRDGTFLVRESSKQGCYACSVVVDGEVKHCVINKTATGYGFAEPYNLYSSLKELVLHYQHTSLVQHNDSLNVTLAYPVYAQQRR
Protocol: as §1, §2

[4] = molecular target: T3, PKCμ (Homo sapiens, UniProt Q15139); assay: as above; format: biochemical; conditions: 5 μM compound, 50 μM ATP, vs vehicle control; negative = inhibition
T3 construct: purchased Signal Chem (Richmond, BC, Canada)
T3 sequence (Q15139 1-912): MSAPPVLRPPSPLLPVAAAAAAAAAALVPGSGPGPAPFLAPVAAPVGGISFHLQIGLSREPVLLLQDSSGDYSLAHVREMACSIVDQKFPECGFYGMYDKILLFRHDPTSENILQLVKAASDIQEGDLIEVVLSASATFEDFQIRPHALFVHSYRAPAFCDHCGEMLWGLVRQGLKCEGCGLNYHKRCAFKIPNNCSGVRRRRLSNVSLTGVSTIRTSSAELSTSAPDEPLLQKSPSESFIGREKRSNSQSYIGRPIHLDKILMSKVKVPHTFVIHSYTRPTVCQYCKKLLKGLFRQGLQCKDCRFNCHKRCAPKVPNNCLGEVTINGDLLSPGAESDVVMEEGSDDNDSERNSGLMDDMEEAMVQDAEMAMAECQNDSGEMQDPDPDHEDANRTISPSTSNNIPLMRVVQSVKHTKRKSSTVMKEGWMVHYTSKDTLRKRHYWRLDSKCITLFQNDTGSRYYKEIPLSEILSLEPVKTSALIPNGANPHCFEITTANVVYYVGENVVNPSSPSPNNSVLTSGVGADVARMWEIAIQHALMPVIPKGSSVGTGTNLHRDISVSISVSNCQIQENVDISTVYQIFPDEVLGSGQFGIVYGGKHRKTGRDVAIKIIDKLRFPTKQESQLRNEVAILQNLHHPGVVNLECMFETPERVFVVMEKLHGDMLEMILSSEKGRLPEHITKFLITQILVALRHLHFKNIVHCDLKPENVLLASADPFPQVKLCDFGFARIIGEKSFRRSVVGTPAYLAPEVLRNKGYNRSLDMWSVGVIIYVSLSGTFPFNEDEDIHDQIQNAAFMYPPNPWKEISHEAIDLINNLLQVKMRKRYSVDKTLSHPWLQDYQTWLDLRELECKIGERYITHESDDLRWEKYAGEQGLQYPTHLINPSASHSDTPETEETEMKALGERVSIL
Protocol: as §1, §2

[5] = molecular target: T4, P38α (Homo sapiens, UniProt Q16539); assay: as above; format: biochemical; conditions: 5 μM compound, 50 μM ATP, vs vehicle control; negative = inhibition
T4 construct: purchased Signal Chem (Richmond, BC, Canada)
T4 sequence (Q16539 whole entry): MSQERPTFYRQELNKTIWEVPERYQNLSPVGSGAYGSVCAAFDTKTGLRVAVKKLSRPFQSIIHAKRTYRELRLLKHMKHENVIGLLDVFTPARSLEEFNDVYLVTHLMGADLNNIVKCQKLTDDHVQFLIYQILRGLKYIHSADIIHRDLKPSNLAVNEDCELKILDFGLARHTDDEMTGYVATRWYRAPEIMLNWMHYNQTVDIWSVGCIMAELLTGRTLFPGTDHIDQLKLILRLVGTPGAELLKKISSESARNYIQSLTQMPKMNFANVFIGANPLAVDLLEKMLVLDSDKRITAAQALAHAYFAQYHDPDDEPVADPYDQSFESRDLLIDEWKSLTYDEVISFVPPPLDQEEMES
Protocol: as §1, §2

[6] = molecular target: T5, PKCη (Homo sapiens, UniProt P24723); assay: as above; format: biochemical; conditions: 5 μM compound, 50 μM ATP, vs vehicle control; negative = inhibition
T5 construct: purchased Signal Chem (Richmond, BC, Canada)
T5 sequence (P24723 whole entry): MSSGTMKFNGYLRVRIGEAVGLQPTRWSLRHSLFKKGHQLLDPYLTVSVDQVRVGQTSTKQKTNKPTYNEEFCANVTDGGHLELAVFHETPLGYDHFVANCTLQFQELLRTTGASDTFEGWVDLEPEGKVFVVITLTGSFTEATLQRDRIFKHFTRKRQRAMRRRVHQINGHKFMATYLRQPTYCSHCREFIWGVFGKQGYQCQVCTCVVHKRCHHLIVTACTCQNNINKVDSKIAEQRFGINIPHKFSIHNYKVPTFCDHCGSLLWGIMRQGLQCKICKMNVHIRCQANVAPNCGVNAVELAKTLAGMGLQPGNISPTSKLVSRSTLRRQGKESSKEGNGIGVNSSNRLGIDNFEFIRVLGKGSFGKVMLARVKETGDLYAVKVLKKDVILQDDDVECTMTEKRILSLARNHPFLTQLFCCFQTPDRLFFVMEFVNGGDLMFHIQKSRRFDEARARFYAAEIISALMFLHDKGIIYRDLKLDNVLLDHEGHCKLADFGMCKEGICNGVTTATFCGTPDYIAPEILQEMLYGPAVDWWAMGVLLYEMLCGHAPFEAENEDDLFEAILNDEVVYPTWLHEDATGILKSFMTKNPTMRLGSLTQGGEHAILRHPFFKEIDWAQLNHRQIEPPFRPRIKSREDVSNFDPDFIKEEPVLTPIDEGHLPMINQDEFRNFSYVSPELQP
Protocol: as §1, §2

[7] = molecular target: T6, PKCα (Homo sapiens, UniProt P17252); assay: as above; format: biochemical; conditions: 5 μM compound, 50 μM ATP, vs vehicle control; negative = inhibition
T6 construct: purchased Signal Chem (Richmond, BC, Canada)
Protocol: as §1, §2

[8] = Activity of simple rottlerin analogs compared with rottlerin (test not named)
Protocol: Design and Synthesis of Novel Rottlerin Analogs. Since Rottlerin has proven to be a difficult target to make synthetically, analogs have been developed and tested in an attempt to localize the region of activity and improve that activity. Initially, simple analogs of Rottlerin itself, obtained from CalBioChem (La Jolla, Calif., Cat #557370), were prepared and analyzed. Two compounds gave important results, one representing a simplified methylene linkage present in the parent compound (PK103), and the other (PK203) came from a simple bromination of natural Rottlerin.

[9] = tested on: mouse primary mesencephalic neuronal cultures; assay: 3H-dopamine uptake assay after MPP+ exposure; format: cell-based; conditions: 10 μM MPP+, 3 μM compound, 48 h
Protocol: Lead PK analogs protect against MPP^+-induced loss of TH+ neurons in primary mesencephalic cultures. To determine if lead PK analogs protect against degeneration of nigral dopaminergic neurons resulting from MPP+ neurotoxicity, mouse primary mesencephalic neuronal cultures (prepared from E16-18-day-old mice embryos) were exposed to 10 μM MPP^+ in the presence or absence of 3 μM of lead PK analogs, PK103, PK202, PK302 and parent compound rottlerin for 48 h, and then assessed the viability of dopaminergic neurons using the ^3H-dopamine uptake assay. (***p<0.005 (vehicle versus MPTP. ##p<0.01 (PK analogs versus MPTP)). Mazindol, a dopamine reuptake inhibitor, was used as a positive control for the assay.

[10] = molecular target: PKCδ (Homo sapiens, UniProt Q05655); conditions: background statement; cited from earlier work
Chain of PKCδ (Q05655 whole entry): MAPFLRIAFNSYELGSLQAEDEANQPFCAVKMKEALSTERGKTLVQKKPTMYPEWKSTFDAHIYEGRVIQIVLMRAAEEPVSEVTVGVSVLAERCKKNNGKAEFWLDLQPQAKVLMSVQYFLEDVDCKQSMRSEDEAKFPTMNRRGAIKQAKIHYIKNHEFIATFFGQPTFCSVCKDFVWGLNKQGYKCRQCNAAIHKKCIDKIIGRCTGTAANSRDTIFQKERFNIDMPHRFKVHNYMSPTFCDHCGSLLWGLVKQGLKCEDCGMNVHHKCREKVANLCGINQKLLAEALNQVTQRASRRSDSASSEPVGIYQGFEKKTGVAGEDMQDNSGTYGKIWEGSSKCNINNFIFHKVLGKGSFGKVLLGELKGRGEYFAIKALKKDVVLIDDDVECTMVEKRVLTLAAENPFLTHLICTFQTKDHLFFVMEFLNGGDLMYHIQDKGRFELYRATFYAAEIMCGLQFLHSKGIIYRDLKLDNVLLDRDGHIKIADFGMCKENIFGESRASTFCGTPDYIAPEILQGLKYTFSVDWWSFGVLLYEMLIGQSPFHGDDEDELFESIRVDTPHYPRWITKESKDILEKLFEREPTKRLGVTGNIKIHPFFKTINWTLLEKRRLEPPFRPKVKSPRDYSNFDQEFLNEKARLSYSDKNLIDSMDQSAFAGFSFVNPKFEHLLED

Row | SMILES | blockage of MPP+-induced DNA fragmentation [1] | % activity change [2] [%] | % activity change [3] [%] | % activity change [4] [%] | % activity change [5] [%] | % activity change [6] [%] | % activity change [7] [%] | activity compared with Rottlerin [8] | protection against MPP+-induced loss of dopaminergic neurons (dopamine uptake) [9] | IC50 [10] [µM]
1 | Oc1cc(O)c(Cc2c(O)cc(O)cc2O)c(O)c1 [PK103] | significant blockage | 9 | −6 | 6 | −5 | 7 | −1 | less activity than Rottlerin |  | 
2 | CC(=O)c1c(O)c(C)c(O)c(Cc2c(O)c3c(c4c2OC(c2ccccc2)CC4=O)OC(C)(C)C=C3)c1O (stereo not shown) [PK202] |  | 1 | −2 | 6 | −1 | 15 | 9 |  |  | 
3 | CC1(C)C=Cc2c(O)cc(O)c(C(=O)/C=C/c3ccccc3)c2O1 [PK302] |  | 32 | −8 | 2 | −4 | 19 | 13 |  |  | 
4 | CC(=O)c1c(O)c(C)c(O)c(Cc2c(O)c3c(c(C(=O)/C=C/c4ccccc4)c2O)OC(C)(C)C=C3)c1O [Rottlerin, (E)-1-[6-[(3-acetyl-2,4,6-trihydroxy-5-methylphenyl)methyl]-5,7-dihydroxy-2,2-dimethylchromen-8-yl]-3-phenylprop-2-en-1-one] |  | 6 | −10 | −5 | −1 | 12 | −7 |  | protected | 3 to 6
